US7105485B2, “HO-1 suppressor as a diagnostic and prognostic test for dementing diseases” (The Sir Mortimer B. Davis - Jewish General Hospital, priority 2000, dated 2006)
Entries after “also recorded” stand apart in the source; their conditions may differ.

Legend:
HO-1 mRNA [1] = assay: Induction of HO-1 mRNA in rat astroglia by cysteamine treatment (Northern blot); format: cell-based; details: rat astroglia grown in standard culture media, CSH 880 μM x 6 hr
Protocol: (§1) Brain cell cultures: Rat astroglia were prepared as described in Schipper et al. (1999), herein incorporated by reference, as follows:
(§2) Pregnant Sprague-Dawley rats were obtained from Charles River Breeding Farms. Primary neural cell cultures were prepared from 1-day old neonates by mechanoenzymatic dissociation of cerebral tissue […] as previously described by Chopra et al., (1997), herein incorporated by reference. Cells were grown in Ham's F-12 and high-glucose DMEM (50:50 vol/vol) supplemented with 10 mM HEPES. 5% heat-inactivated horse serum, 5% heat-inactivated fetal bovine serum, and penicillin/streptomycin (50 U/ml and 50 μg/ml, respectively). […] The cultures were then incubated under the above-mentioned conditions for 6 days, at which time >98% of the cells composing the monolayer were astroglia, as determined by immunohistochemical labeling for the astrocyte-specific marker glial fibrillary acidic protein, as described by Chopra et al. (1995), herein incorporated by reference. […]
(§3) RNA isolation and Northern analysis: Cultured astrocytes were harvested using a rubber policeman, and cytoplasmic RNA was isolated using an acid guanidinium thiocyanate/phenol/chloroform extraction method, as described by Chomczynski and Sacchi (1987), herein incorporated by reference. […] Resulting bands on the autoradiograph were analyzed using a phosphorimager S1 densitometer. […]

HO-1 mRNA [2] = assay: HOS bioassay: effect of 24 h pre-incubation with plasma or plasma fractions on the induced HO-1 mRNA response of rat astroglia (Northern blot); format: cell-based; details: normal subjects taking antioxidants; vitamin E 400 U/day (N1); multiple very high-dose antioxidants (N2, N3)
Protocol: as §1, §2, §3

| Compound | HO-1 mRNA bands after cysteamine (CSH) treatment (HO-1 mRNA [1]) | HO-1 mRNA bands after cysteamine (CSH) treatment (HO-1 mRNA [1]; listed as CSH) | astrocyte HO-1 mRNA response to CSH with plasma of normal subjects on antioxidants (HO-1 mRNA [2]) |
| --- | --- | --- | --- |
| NCCS [Cysteamine] | induces strong HO-1 mRNA bands; also recorded: induces robust HO-1 mRNA bands | intense HO-1 mRNA signal | – |
| vitamin E | – | – | does not affect |
